Reference: PMC9927415, “Tyrosine Kinase Inhibitors Display Potent Activity against Cryptosporidium parvum” (Microbiology Spectrum, 2022)

Assays:
Assay in all cases: KINOMEscan competitive binding
[1] = biological target: T1, TXK (Homo sapiens, UniProt P42681); conditions: n=1, read-out: Percent inhibition, TXK
T1 construct: purchased DiscoverX (KINOMEscan)
T1 sequence (P42681 1-527): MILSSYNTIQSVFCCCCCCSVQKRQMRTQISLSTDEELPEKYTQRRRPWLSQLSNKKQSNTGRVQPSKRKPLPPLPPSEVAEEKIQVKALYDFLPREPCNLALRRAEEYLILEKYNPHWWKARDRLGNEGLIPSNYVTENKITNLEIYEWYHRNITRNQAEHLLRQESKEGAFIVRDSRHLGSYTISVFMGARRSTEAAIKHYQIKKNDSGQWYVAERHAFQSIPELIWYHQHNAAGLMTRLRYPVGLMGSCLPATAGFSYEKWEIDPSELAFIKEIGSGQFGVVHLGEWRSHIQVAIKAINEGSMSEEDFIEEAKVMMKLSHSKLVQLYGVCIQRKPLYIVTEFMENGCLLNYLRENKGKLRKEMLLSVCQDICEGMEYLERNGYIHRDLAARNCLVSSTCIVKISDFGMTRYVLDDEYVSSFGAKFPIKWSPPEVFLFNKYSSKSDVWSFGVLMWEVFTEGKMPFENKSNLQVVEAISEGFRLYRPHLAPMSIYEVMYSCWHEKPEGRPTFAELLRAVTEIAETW

[2] = biological target: T2, PAK6 (Homo sapiens, UniProt Q9NQU5); conditions: n=1, read-out: Percent inhibition, PAK6
T2 construct: purchased DiscoverX (KINOMEscan)
T2 sequence (Q9NQU5 whole entry): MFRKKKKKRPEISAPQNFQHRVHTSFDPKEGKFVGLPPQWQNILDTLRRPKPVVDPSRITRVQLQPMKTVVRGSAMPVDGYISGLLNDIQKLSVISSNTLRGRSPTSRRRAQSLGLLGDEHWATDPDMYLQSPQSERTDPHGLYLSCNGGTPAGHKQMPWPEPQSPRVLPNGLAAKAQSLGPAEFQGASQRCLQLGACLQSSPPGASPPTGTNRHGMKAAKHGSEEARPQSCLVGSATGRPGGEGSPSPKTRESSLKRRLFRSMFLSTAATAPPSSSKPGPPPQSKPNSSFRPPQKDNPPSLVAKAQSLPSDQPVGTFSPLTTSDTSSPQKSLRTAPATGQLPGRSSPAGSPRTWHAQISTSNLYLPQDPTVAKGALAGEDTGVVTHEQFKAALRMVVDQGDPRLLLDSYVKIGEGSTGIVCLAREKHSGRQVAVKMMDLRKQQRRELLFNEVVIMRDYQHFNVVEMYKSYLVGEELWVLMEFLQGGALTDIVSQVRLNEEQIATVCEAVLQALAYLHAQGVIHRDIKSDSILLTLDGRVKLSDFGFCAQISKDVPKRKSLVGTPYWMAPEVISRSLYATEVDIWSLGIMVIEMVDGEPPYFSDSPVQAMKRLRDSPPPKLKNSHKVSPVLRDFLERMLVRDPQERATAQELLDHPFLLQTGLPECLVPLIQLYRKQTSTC

[3] = biological target: T3, PRKD2 (Homo sapiens, UniProt Q9BZL6); conditions: n=1, read-out: Percent inhibition, PRKD2
T3 construct: purchased DiscoverX (KINOMEscan)
T3 sequence (Q9BZL6 1-878): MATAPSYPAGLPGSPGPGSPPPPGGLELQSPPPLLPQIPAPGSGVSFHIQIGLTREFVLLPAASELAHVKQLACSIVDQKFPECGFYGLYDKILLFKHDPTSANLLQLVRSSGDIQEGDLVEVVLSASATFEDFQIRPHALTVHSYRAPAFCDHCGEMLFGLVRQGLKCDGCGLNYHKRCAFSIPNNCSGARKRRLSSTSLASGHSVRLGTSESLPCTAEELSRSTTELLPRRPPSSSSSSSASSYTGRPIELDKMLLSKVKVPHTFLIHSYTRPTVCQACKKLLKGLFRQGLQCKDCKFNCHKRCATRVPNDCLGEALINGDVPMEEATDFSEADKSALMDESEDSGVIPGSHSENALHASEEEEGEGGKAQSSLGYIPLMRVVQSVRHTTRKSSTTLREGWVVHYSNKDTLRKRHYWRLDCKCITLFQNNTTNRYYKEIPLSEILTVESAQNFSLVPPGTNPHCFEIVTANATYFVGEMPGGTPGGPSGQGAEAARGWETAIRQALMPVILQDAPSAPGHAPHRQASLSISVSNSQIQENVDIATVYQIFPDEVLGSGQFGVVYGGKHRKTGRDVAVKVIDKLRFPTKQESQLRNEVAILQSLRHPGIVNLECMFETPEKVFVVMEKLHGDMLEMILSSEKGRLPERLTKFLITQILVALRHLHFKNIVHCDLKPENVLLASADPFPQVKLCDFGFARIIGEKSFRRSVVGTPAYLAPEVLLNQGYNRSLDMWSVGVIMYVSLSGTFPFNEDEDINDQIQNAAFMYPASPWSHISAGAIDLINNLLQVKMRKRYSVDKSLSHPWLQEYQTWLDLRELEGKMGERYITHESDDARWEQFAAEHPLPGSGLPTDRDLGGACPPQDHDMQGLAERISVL

[4] = biological target: T4, PLK4 (Homo sapiens, UniProt O00444); conditions: n=1, read-out: Percent inhibition, PLK4
T4 construct: purchased DiscoverX (KINOMEscan)
T4 sequence (O00444 1-970): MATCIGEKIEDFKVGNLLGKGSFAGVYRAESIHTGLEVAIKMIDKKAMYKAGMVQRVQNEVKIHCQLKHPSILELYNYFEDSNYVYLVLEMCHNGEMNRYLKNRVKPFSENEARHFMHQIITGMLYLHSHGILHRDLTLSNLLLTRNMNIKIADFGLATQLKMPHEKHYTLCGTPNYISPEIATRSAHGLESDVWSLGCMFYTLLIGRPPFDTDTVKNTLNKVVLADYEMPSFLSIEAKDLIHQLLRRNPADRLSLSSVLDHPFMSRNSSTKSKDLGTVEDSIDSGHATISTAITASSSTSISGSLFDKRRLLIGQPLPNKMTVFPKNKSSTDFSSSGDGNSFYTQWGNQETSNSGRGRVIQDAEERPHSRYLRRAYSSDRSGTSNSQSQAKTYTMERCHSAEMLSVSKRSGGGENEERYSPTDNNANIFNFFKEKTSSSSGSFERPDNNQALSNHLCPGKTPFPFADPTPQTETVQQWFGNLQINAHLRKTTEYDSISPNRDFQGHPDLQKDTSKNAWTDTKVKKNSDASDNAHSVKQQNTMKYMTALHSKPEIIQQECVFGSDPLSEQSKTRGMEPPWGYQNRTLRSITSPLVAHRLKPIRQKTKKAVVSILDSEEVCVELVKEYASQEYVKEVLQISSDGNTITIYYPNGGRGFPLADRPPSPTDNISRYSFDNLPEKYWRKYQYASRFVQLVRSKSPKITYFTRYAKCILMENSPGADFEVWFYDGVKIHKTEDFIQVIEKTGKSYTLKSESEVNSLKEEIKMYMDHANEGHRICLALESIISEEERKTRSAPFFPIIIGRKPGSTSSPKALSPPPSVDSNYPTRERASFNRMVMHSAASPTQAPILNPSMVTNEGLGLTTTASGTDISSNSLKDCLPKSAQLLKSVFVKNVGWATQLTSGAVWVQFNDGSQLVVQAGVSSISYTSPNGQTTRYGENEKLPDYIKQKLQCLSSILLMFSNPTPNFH

[5] = biological target: T5, PKAC-beta (Homo sapiens, UniProt P22694); conditions: n=1, read-out: Percent inhibition, PKAC-beta
T5 construct: purchased DiscoverX (KINOMEscan)

[6] = biological target: T6, PTK6 (Homo sapiens, UniProt Q13882); conditions: n=1, read-out: Percent inhibition, PTK6
T6 construct: purchased DiscoverX (KINOMEscan)
T6 sequence (Q13882 whole entry): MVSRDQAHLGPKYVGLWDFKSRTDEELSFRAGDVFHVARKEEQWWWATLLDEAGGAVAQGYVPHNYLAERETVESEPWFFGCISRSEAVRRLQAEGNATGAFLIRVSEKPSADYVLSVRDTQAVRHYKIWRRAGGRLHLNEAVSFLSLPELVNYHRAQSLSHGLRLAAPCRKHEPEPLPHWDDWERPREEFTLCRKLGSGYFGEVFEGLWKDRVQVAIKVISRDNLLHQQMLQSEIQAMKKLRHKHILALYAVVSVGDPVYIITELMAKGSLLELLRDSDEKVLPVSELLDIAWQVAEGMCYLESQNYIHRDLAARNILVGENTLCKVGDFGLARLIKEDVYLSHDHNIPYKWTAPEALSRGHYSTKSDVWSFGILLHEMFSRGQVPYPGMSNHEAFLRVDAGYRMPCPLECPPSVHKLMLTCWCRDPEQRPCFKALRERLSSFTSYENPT

| SMILES | inhibition at 10 µM [1] | inhibition at 10 µM [2] | inhibition at 10 µM [3] | inhibition at 10 µM [4] | inhibition at 10 µM [5] | inhibition at 10 µM [6] |
| --- | --- | --- | --- | --- | --- | --- |
| CN1CCN(c2ccc(Nc3nccc(-c4cnn5ncccc45)n3)cc2C#N)CC1 [Compound 1] | 0% | 92.5% | 0% | 99.7% | 0% | 77% |
| COc1ccc(Nc2nccc(-c3cnn4ncccc34)n2)cc1 [Compound 2] | 0% | 82% | 75.3% | 99% | 0% | 0% |
| Cc1ccc(O)cc1Nc1ccnc(Nc2cccc(C(N)=O)c2)n1 [Compound 3] | 100% | 0% | 87.1% | 95.2% | 0% | 100% |
| Cc1ccc(O)cc1N(C)c1ccnc(Nc2cccc(S(N)(=O)=O)c2)n1 [Compound 4] | 100% | 94.3% | 96.6% | 99.4% | 77.8% | 100% |
| Fc1cccc(COc2ccc(Nc3ncnc4c3CN(CCN3CCOCC3)CC4)cc2Cl)c1 [Compound 6] | 0% | 0% | 0% | 0% | 0% | 0% |
| COc1cc(Nc2nccc(-c3sc(N)nc3-c3cccc(NC(=O)c4c(F)cccc4F)c3)n2)cc(OC)c1OC [Compound 7] | 90.4% | 65% | 100% | 99.8% | 0% | 100% |
| C[C@@H](Oc1cc(-c2cnc3ccccn23)sc1C(N)=O)c1ccccc1Cl [Compound 8] | 0% | 0% | 0% | 76.4% | 0% | 0% |
| c1ccc(COc2cccc(-c3ccnc4[nH]ccc34)c2)cc1 [Compound 9] | 0% | 0% | 0% | 0% | 0% | 0% |
| Clc1ccc(Nc2ncc(-c3ccccc3)s2)cc1 [Compound 10] | 0% | 0% | 0% | 0% | 0% | 0% |
| Nc1ncc2c(-c3ccncc3)c[nH]c2n1 [Compound 11] | 0% | 0% | 0% | 84.4% | 0% | 0% |
